Columns and labels:
HiBit-BRM fusion protein = biological target: T1, HiBit-BRM fusion protein (Homo sapiens, UniProt P51531); experiment: HiBiT-BRM cell-based degradation assay (Nano-Glo HiBiT Lytic Detection, 24 h); settings: HeLa cells expressing HiBiT-BRM; for DC50: read-out: BRM HiBit Degradation IC50; for BRM HiBit Degradation Maximum measured: top dose 30 μM
T1 construct: expressed in transfected cells
Experimental: (§1) Procedure: A stable HeLa cell line expressing HiBiT-BRM was generated. On day 0, 5000 cells were seeded in 40 μL of media into each well of 384-well cell culture plates. On day 1, cells were treated with 120 nL DMSO or 120 nL of 3-fold serially DMSO-diluted compounds (10 points in duplicate with 30 μM as final top dose). Subsequently plates were incubated for 24 h in a standard tissue culture incubator and equilibrated at room temperature for 15 minutes. Nano-Glo HiBiT Lytic Detection System (Promega N3050) reagent was freshly prepared and 20 ul was added to each well. Upon addition of this LgBit-containing reagent, the HiBiT and LgBiT proteins associate to form the luminescent NanoBiT luciferase. The plates were shaken for 10 minutes at room temperature and the bioluminescence read using an EnVision plate reader (PerkinElmer).
(§2) The degradation % was calculated using the following formula: % degradation=100%−100%×(LumSample−LumLC)/(LumHC−LumLC). DMSO treated cells are employed as High Control (HC) and 2 μM of a known BRM/BRG1 degrader standard treated cells are employed as Low Control (LC).

[1] = biological target: T2, HiBit-BRG1 fusion protein (Homo sapiens, UniProt P51532); experiment: HiBiT-BRG1 cell-based degradation assay (Nano-Glo HiBiT Lytic Detection, 24 h); settings: HeLa cells expressing HiBit-BRG1 and LgBit; for DC50: read-out: BRG1 HiBit Degradation IC50; for Dmax: HeLa, top dose 30 μM, read-out: BRG1 HiBit Degradation Maximum measured
T2 construct: expressed in transfected cells
T2 sequence (P51532 whole entry, the tested form may be a part): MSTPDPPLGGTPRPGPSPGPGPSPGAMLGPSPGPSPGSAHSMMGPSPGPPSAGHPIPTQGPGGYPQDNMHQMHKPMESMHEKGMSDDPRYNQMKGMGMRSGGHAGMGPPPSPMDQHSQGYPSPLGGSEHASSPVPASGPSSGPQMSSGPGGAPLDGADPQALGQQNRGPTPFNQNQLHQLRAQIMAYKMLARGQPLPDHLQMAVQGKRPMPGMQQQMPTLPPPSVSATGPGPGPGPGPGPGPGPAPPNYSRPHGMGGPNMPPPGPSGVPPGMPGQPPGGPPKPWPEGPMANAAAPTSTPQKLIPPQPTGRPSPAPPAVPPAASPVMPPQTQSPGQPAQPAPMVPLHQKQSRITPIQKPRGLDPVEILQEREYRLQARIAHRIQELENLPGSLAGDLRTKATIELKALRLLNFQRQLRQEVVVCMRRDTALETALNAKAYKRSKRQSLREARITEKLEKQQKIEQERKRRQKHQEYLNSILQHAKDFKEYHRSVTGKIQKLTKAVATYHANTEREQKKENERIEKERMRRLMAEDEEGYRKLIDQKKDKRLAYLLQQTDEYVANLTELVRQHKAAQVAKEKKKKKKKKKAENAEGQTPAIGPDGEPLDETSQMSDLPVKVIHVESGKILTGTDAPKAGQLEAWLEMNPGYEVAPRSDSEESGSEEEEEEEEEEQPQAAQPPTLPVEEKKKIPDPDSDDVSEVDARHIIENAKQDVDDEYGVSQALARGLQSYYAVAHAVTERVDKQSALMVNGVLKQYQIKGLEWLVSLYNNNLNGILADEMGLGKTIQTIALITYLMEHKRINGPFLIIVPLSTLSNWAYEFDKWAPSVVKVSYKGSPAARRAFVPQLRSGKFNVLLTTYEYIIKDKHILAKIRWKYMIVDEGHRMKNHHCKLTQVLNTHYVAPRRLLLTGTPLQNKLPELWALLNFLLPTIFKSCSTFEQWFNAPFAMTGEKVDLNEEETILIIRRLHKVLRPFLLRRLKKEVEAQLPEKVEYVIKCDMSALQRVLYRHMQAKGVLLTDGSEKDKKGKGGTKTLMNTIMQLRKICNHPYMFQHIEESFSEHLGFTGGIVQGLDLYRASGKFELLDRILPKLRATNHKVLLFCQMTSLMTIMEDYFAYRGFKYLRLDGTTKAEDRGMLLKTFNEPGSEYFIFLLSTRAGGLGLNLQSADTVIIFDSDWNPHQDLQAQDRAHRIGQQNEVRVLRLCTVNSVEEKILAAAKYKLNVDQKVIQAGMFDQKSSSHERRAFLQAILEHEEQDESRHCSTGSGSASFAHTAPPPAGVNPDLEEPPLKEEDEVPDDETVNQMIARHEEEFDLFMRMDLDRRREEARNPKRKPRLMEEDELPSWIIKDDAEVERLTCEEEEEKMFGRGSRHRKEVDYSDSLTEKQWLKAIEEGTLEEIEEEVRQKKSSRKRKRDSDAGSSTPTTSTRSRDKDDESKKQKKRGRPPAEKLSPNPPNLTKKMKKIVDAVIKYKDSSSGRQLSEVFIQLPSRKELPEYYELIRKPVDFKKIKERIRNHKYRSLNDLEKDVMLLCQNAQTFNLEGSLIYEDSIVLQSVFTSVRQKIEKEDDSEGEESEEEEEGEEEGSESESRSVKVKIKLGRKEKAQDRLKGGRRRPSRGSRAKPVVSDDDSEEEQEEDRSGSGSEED
Experimental: as §1, with “On day 1, cells were treated with 120 nL DMSO or 120 nL of 3-fold serially DMSO-diluted compounds (10 points in duplicate with 30 μM as final top dose). Subsequently plates were incubated for 24 h in a standard tissue culture incubator and equilibrated at room temperature for 15 minutes.” left out
For measurement of BRG1 degradation, a stable HeLa cell line expressing HiBit-BRG1 and LgBit was generated. The same protocol as above was then followed.
as §2

T1 sequence (P51531 whole entry, the tested form may be a part): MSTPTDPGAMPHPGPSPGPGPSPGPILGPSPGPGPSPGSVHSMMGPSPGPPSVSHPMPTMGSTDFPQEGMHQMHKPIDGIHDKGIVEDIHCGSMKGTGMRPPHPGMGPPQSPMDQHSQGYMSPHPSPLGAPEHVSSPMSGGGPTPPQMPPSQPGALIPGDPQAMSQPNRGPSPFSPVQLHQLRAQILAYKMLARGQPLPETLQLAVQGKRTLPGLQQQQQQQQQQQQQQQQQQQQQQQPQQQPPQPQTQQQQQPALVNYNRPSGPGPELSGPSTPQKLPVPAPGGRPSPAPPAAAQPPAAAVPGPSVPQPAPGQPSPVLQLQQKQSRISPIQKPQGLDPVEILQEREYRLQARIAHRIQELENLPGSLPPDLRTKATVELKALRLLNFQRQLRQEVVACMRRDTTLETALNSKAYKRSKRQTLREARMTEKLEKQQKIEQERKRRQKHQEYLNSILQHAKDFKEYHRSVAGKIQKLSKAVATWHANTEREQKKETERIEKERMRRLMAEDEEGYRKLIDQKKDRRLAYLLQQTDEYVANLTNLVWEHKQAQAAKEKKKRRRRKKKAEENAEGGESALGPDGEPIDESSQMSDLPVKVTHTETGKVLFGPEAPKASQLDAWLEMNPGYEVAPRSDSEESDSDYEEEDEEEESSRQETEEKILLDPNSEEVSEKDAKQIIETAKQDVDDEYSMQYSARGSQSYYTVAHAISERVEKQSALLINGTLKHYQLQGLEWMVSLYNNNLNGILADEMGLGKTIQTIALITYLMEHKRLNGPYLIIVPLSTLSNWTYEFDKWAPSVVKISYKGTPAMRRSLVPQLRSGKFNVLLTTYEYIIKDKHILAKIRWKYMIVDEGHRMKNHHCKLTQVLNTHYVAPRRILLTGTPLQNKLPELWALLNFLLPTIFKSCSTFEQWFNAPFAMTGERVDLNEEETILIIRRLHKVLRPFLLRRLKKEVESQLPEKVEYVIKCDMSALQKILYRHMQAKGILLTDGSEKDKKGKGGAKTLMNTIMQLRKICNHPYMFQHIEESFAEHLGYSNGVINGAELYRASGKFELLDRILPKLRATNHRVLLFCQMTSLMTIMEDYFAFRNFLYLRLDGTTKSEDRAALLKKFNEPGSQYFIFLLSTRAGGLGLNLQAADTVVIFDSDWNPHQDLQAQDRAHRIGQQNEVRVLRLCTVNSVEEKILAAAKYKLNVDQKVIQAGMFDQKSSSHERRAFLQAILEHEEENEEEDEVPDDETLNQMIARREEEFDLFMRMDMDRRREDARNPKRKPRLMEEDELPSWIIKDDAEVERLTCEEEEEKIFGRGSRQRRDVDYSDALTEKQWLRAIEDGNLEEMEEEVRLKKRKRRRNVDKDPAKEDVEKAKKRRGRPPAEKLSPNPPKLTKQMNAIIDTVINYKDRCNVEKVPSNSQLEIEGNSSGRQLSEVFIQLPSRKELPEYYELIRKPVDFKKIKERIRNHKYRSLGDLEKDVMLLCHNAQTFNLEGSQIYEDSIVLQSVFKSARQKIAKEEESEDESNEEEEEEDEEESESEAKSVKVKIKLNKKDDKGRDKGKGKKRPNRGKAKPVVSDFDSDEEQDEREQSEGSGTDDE

Compound	DC50 (HiBit-BRM fusion protein)	BRM HiBit Degradation Maximum measured (HiBit-BRM fusion protein)	DC50 [1]	Dmax [1]
CS(=O)(=O)n1ccc(C(=O)NCC(=O)Nc2nc(-c3cccc(-c4ccnc(C5(C(=O)NCCCCCCCCNC(=O)COc6cccc7c6C(=O)N(C6CCC(=O)NC6=O)C7=O)CC5)c4)c3)cs2)c1 (stereo not shown) [Compound 13, N-(2-((4-(3-(2-(1-((8-(2-((2-(2,6-dioxopiperidin-3-yl)-1,3-dioxoisoindolin-4-yl)oxy)acetamido)octyl)carbamoyl)-cyclopropyl)pyridin-4-yl)phenyl)thiazol-2-yl)amino)-2-oxoethyl)-1-(methylsulfonyl)-1H-pyrrole-3-carboxamide]	> 10 µM	C (‘C’ = Maximum degradation <50%)	0.1 to 1 µM	50 to 75%
CS(=O)(=O)n1ccc(C(=O)NCC(=O)Nc2nc(-c3cccc(-c4ccnc(C5(C(=O)N6CCC(C7CCN(C(=O)COc8cccc9c8C(=O)N(C8CCC(=O)NC8=O)C9=O)CC7)CC6)CC5)c4)c3)cs2)c1 (stereo not shown) [Compound 14, N-(2-((4-(3-(2-(1-(1′-(2-((2-(2,6-dioxopiperidin-3-yl)-1,3-dioxoisoindolin-4-yl)oxy)acetyl)-[4,4′-bipiperidine]-1-carbonyl)cyclopropyl)pyridin-4-yl)phenyl)thiazol-2-yl)amino)-2-oxoethyl)-1-(methylsulfonyl)-1H-pyrrole-3-carboxamide]	> 10 µM	C (‘C’ = Maximum degradation <50%)	> 10 µM	< 50%
CN(CC(=O)N1CCC(C2CCN(C(=O)COc3cccc4c3C(=O)N(C3CCC(=O)NC3=O)C4=O)CC2)CC1)c1cc(-c2cccc(-c3csc(NC(=O)CNC(=O)c4ccn(S(C)(=O)=O)c4)n3)c2)ccn1 (stereo not shown) [Compound 17, N-(2-((4-(3-(2-((2-(1′-(2-((2-(2,6-dioxopiperidin-3-yl)-1,3-dioxoisoindolin-4-yl)oxy)acetyl)-[4,4′-bipiperidin]-1-yl)-2-oxoethyl)(methyl)amino)pyridin-4-yl)phenyl)thiazol-2-yl)amino)-2-oxoethyl)-1-(methylsulfonyl)-1H-pyrrole-3-carboxamide]	> 10 µM	C (‘C’ = Maximum degradation <50%)	> 10 µM	< 50%
Cc1ncsc1-c1ccc(CNC(=O)[C@@H]2C[C@@H](O)CN2C(=O)[C@@H](NC(=O)COCC(=O)NCc2cccc(-c3cccc(-c4csc(NC(=O)CNC(=O)c5ccn(S(C)(=O)=O)c5)n4)c3)c2)C(C)(C)C)cc1 [Compound 18, N-[2-[[4-[3-[3-[[[2-[2-[[(1S)-1-[(2S,4R)-4-hydroxy-2-[[4-(4-methylthiazol-5-yl)phenyl]methylcarbamoyl]pyrrolidine-1-carbonyl]-2,2-dimethyl-propyl]amino]-2-oxo-ethoxy]acetyl]amino]methyl]-phenyl]phenyl]thiazol-2-yl]amino]-2-oxo-ethyl]-1-methylsulfonyl-pyrrole-3-carboxamide]	> 10 µM	C (‘C’ = Maximum degradation <50%)	> 10 µM	< 50%
Cc1ncsc1-c1ccc(CNC(=O)[C@@H]2C[C@@H](O)CN2C(=O)[C@@H](NC(=O)CCCCCCCCC(=O)NCc2cccc(-c3cccc(-c4csc(NC(=O)CNC(=O)c5ccn(S(C)(=O)=O)c5)n4)c3)c2)C(C)(C)C)cc1 [Compound 19, N′-[(1S)-1-[(2S,4R)-4-hydroxy-2-[[4-(4-methylthiazol-5-yl)phenyl]methylcarbamoyl]pyrrolidine-1-carbonyl]-2,2-dimethylpropyl]-N-[[3-[3-[2-[[2-[(1-methylsulfonylpyrrole-3-carbonyl)amino]acetyl]amino]thiazol-4-yl]phenyl]phenyl]methyl]decanediamide]	< 0.1 µM	A (‘A’ = Maximum degradation >75%)	0.1 to 1 µM	> 75%
CN(CC(=O)N1CC(COc2cccc3c2C(=O)N(C2CCC(=O)NC2=O)C3=O)C1)c1cc(-c2cccc(-c3csc(NC(=O)CNC(=O)c4ccn(S(C)(=O)=O)c4)n3)c2)ccn1 (stereo not shown) [Compound 27]	> 10 µM	C (‘C’ = Maximum degradation <50%)	> 10 µM	< 50%
CS(=O)(=O)n1ccc(C(=O)NCC(=O)Nc2nc(-c3cccc(-c4cccc(CNC(=O)CCCOc5cccc6c5C(=O)N(C5CCC(=O)NC5=O)C6=O)c4)c3)cs2)c1 (stereo not shown) [Compound 30]	> 10 µM	C (‘C’ = Maximum degradation <50%)	> 10 µM	< 50%
CS(=O)(=O)n1ccc(C(=O)NCC(=O)Nc2nc(-c3cccc(-c4ccnc(N5CCN(C(=O)CCOCCOCCNc6cccc7c6C(=O)N(C6CCC(=O)NC6=O)C7=O)CC5)c4)c3)cs2)c1 (stereo not shown) [Compound 31, N-[2-[[4-[3-[2-[4-[3-[2-[2-[[2-(2,6-dioxo-3-piperidyl)-1,3-dioxo-isoindolin-4-yl]amino]ethoxy]ethoxy]propanoyl]piperazin-1-yl]-4-pyridyl]phenyl]thiazol-2-yl]amino]-2-oxo-ethyl]-1-methylsulfonyl-pyrrole-3-carboxamide]	0.1 to 1 µM	A (‘A’ = Maximum degradation >75%)	0.1 to 1 µM	> 75%

Results, then the molecule that gave them:

DC50 (HiBit-BRM fusion protein)	BRM HiBit Degradation Maximum measured (HiBit-BRM fusion protein)	DC50 [1]	Dmax [1]	Compound
> 10 µM	C (‘C’ = Maximum degradation <50%)	> 10 µM	< 50%	CN(CC(=O)NCCCCCCCCNC(=O)COc1cccc2c1C(=O)N(C1CCC(=O)NC1=O)C2=O)c1cc(-c2cccc(-c3csc(NC(=O)CNC(=O)c4ccn(S(C)(=O)=O)c4)n3)c2)ccn1 (stereo not shown) [Compound 15, N-(2-((4-(3-(2-((2-((8-(2-((2-(2,6-dioxopiperidin-3-yl)-1,3-dioxoisoindolin-4-yl)oxy)acetamido)octyl)amino)-2-oxoethyl)(methyl)amino)pyridin-4-yl)phenyl)thiazol-2-yl)amino)-2-oxoethyl)-1-(methylsulfonyl)-1H-pyrrole-3-carboxamide]
> 10 µM	C (‘C’ = Maximum degradation <50%)	> 10 µM	< 50%	CN(CC(=O)NCCCCCNc1cccc2c1C(=O)N(C1CCC(=O)NC1=O)C2=O)c1cc(-c2cccc(-c3csc(NC(=O)CNC(=O)c4ccn(S(C)(=O)=O)c4)n3)c2)ccn1 (stereo not shown) [Compound 16, N-(2-((4-(3-(2-((2-((5-((2-(2,6-dioxopiperidin-3-yl)-1,3-dioxoisoindolin-4-yl)amino)pentyl)amino)-2-oxoethyl)(methyl)amino)pyridin-4-yl)phenyl)thiazol-2-yl)amino)-2-oxoethyl)-1-(methylsulfonyl)-1H-pyrrole-3-carboxamide]
> 10 µM	C (‘C’ = Maximum degradation <50%)	> 10 µM	50 to 75%	CS(=O)(=O)n1ccc(C(=O)NCC(=O)Nc2nc(-c3cccc(-c4cccc(CNC(=O)CCCCCCCCNc5cccc6c5C(=O)N(C5CCC(=O)NC5=O)C6=O)c4)c3)cs2)c1 (stereo not shown) [Compound 20, N-(2-((4-(3′-((9-((2-(2,6-dioxopiperidin-3-yl)-1,3-dioxoisoindolin-4-yl)amino)nonanamido)methyl)-[1,1′-biphenyl]-3-yl)thiazol-2-yl)amino)-2-oxoethyl)-1-(methylsulfonyl)-1H-pyrrole-3-carboxamide]
> 10 µM	C (‘C’ = Maximum degradation <50%)	> 10 µM	< 50%	CN(CCNC(=O)CN(C)c1cc(-c2cccc(-c3csc(NC(=O)CNC(=O)c4ccn(S(C)(=O)=O)c4)n3)c2)ccn1)CCNc1cccc2c1C(=O)N(C1CCC(=O)NC1=O)C2=O (stereo not shown) [Compound 21, N-(2-((4-(3-(2-((2-((2-((2-((2-(2,6-dioxopiperidin-3-yl)-1,3-dioxoisoindolin-4-yl)amino)ethyl)(methyl)amino)ethyl)amino)-2-oxoethyl)(methyl)amino)pyridin-4-yl)phenyl)thiazol-2-yl)amino)-2-oxoethyl)-1-(methylsulfonyl)-1H-pyrrole-3-carboxamide]
> 10 µM	C (‘C’ = Maximum degradation <50%)	> 10 µM	< 50%	CN(CC(=O)NCCCCS(=O)(=O)CCCNc1cccc2c1C(=O)N(C1CCC(=O)NC1=O)C2=O)c1cc(-c2cccc(-c3csc(NC(=O)CNC(=O)c4ccn(S(C)(=O)=O)c4)n3)c2)ccn1 (stereo not shown) [Compound 29]
